From patent US7393825B2, “Microdose therapy” (Strakan International Limited, priority 1997, dated 2008)

Columns and labels:
[1] = system: renal vasculature; assay: Renal interstitial hydrostatic pressure (RIHP) and mean arterial pressure in anaesthetized rats
[2] = system: L-NAME treated rats; assay: Mean arterial pressure response to vasoactive infusions in control and L-NAME treated rats; assay type: in vivo, rat; settings: for shift of concentration-mean arterial pressure response curve after NO synthase blockade: L-NAME treated versus control rats
Method: The surgical method was based on the technique of Thompson et al (Hypertens. 20:809, 1992). […] The catheters were tunnelled subcutaneously and exteriorized at the back of the neck and sutured in place. Two days after surgery, MAP could be recorded (MacLab DAS, ADInstruments, Milford, Mass.). After connection, an equilibration period of approximately 30 minutes allowed for the determination of the steady state level of MAP before any recording began. Baseline MAP was determined from readings averaged over 5 minutes, taken from each rat at 15 minute intervals for at least 1 hour prior to the start of any experiment.
Rats were randomly assigned treatment with N^ω-nitro-L-arginine methyl ester (L-NAME) for 30 minutes (100 mg/kg, intraperitoneally) or 12 days (100 mg/kg, in drinking water) or tap water. Two days prior to the day of the experiment rats were instrumented with catheters, as described above. Following baseline measurements of MAP, rats were given a infusions of sodium nitroprusside (SNP, 0.5 to 32 ug/kg per minute dissolved in 0.9% sterile saline) with a step-wise increase in concentration every two minutes. Rats were allowed 30 minutes to recover from the SNP administration. Rats were then given infusions of glyceryl trinitrate (GTN, 0.5 to 32 ug/kg per minute dissolved in 0.9% sterile saline) with a step-wise increase in concentration every two minutes.
Throughout all of these pharmacological manipulations, MAP and HR were recorded at a sampling rate of 100 Hz and the data was stored on a disk drive for later analysis.

[3] = in vivo; cited from earlier work
[4] = system: patients with previously diagnosed ED; assay: Clinical case studies in patients with erectile dysfunction; assay type: in vivo, human; settings: 0.2 mg/h patch
Method: Clinical Data: For erectile dysfunction reversal with microdoses of NO General Methods. Measurements were made in a clinical erectile dysfunction (ED) laboratory in patients with previously diagnosed ED. These patients were being evaluated for the purpose of optimization of their intracavernous injection dosing. All men were assessed using the Queen's University Human Sexuality Group Protocol (Kingston, Ontario, Canada).

[5] = Plasma concentration of glyceryl trinitrate after patch or spray delivery; assay type: in vivo, human; settings: 0.2 mg/h patch after 20 to 30 minutes
Method: The concentration of glyceryl trinitrate (the typical form of NO donor derived from Nitrospray or Nitropatches) has been reported in the literature for such delivery routes to be in the order of 200 to 400 pg/ml of plasma (Sun et al., J. Clin. Pharmacol. 35:390, 1995). Based on the clinical case studies performed, it was noted that the beneficial effects of a 0.2 mg/h patch are observed after 20 to 30 minutes. This corresponds to a plasma concentration of 100 pg/ml. In respect of the application of the invention to ED therapy a preferred range of NO agent (such as GTN) is a steady state plasma concentration of about 50 to about 200 pg/ml. This range corresponds to the “window” referred to above as illustrated in FIG. 4.

SMILES: COC(=O)[C@@H](N)CCCNC(=N)N[N+](=O)[O-] [L-NAME, N^ω nitro-L-arginine methyl ester]
- change in RIHP ([1]; administration of NO synthase blocker, FIG. 5): sharp decline in RIHP
- hypertension following maximal NO synthase blockade ([2]; L-NAME alone): 40 mmHg

SMILES: CC(C)NCC(O)c1ccc(O)c(O)c1 (stereo not shown) [INE, isopropylnorepinephrine]
- shift of concentration-mean arterial pressure response curve after NO synthase blockade [2]: identical both before and after nitric oxide synthase blockade

SMILES: N=C(N)NCCC[C@H](N)C(=O)O [L-Arginine]
- renal vasoconstriction as measured by RIHP changes ([1]; L-NAME treated, 150-200 mg/kg per min, FIG. 6): reversed the renal vasoconstriction

SMILES: COc1cc2nc(N3CCN(C(=O)c4ccco4)CC3)nc(N)c2cc1OC [prazosin]
- increased sensitivity to nitric oxide donors following treatment ([2]; FIG. 9): does not occur

SMILES: O=[N+]([O-])OCC(CO[N+](=O)[O-])O[N+](=O)[O-] [GTN, glyceryl trinitrate]
- plasma concentration reported in the literature [3]: 0.2 to 0.4 ng/mL
- time to beneficial effects [4]: 20 to 30 min
- plasma concentration corresponding to onset of beneficial effects [5]: 0.1 ng/mL
- reversal of NO synthase blockade induced hypertension / excessive vasoconstriction ([2]; L-NAME treated rats, concentrations that do not lower MAP in controls): almost completely reversed
- shift of concentration-mean arterial pressure response curve after NO synthase blockade [2]: shifted leftward
